Reference: ChEMBL document CHEMBL5715260, “Selectivity Literature for EUbOPEN Chemogenomic Library” (2024)

Legend:
[1] = target: T1, Nuclear receptor subfamily 2 group C member 1 (Homo sapiens) (UniProt P13056); assay: Selectivity interaction (Reporter gene assay) EUB0000582a NR2C1; set-up: recommended concentration 1 uM
T1 sequence (whole entry): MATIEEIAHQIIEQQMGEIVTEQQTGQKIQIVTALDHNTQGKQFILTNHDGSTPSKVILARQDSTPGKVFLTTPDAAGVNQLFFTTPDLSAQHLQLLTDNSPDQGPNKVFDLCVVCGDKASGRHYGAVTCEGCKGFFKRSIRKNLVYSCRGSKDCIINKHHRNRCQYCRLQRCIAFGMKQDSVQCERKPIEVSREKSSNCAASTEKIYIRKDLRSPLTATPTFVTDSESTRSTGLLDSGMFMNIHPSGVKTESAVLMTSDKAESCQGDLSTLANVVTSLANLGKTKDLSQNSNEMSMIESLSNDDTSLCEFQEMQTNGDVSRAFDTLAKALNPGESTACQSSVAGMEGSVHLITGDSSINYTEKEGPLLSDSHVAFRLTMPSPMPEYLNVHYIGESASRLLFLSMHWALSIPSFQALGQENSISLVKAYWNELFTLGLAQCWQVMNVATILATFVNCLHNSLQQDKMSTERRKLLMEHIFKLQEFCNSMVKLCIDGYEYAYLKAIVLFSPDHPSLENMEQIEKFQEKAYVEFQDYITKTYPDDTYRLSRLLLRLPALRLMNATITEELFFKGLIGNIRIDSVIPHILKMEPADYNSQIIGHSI

[2] = target: Nuclear receptor subfamily 2 group E member 1 (Homo sapiens) (UniProt Q9Y466); assay: Selectivity interaction (Reporter gene assay) EUB0000582a NR2E1; set-up: recommended concentration 1 uM
[3] = target: T2, Hepatocyte nuclear factor 4-alpha (Homo sapiens) (UniProt P41235); assay: Selectivity interaction (Reporter gene assay) EUB0000582a HNF4A; set-up: recommended concentration 1 uM
T2 sequence (whole entry): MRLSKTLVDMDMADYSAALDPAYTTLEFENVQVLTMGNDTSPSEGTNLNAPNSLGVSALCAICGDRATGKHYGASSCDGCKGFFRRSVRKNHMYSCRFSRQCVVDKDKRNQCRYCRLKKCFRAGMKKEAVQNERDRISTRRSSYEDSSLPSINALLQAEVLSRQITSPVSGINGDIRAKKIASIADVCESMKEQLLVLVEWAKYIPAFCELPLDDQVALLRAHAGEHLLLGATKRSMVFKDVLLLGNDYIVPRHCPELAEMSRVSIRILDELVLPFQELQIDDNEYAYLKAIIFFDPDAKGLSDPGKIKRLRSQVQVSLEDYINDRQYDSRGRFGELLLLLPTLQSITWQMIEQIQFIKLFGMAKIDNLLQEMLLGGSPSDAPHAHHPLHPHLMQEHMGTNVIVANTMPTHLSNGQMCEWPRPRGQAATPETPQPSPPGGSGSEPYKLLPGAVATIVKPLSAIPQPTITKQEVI

[4] = target: T3, Retinoic acid receptor RXR-alpha (Homo sapiens) (UniProt P19793); assay: Selectivity interaction (Reporter gene assay) EUB0000582a RXRA; set-up: recommended concentration 1 uM; settings: reference bexarotene 1 uM, Selectivity number of off-targets 0.0, Selectivity number of targets 1.0, Source Knowledge inhouse
T3 sequence (whole entry): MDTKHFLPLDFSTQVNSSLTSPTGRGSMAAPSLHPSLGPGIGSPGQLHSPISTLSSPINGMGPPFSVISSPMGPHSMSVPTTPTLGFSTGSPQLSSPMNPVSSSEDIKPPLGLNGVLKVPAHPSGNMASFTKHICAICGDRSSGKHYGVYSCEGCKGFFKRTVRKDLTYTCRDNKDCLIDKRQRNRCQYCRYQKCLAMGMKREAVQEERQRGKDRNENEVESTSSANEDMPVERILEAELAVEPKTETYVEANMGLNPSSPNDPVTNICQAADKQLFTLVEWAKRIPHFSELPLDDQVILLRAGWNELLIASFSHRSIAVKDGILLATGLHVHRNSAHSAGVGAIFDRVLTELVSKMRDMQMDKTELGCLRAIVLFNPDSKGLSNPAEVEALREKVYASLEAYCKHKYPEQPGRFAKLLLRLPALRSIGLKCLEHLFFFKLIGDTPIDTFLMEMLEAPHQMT

[5] = target: T4, Alpha trans-inducing protein (Human alphaherpesvirus 1) (UniProt A0A5J6DW59); assay: Selectivity interaction (Reporter gene assay) EUB0000582a UL48; set-up: recommended concentration 1 uM
[6] = target: Nuclear receptor subfamily 4immunitygroup A member 1 (Homo sapiens) (UniProt P22736); assay: Selectivity interaction (Reporter gene assay) EUB0000582a NR4A1; set-up: recommended concentration 1 uM
[7] = target: Steroidogenic factor 1 (Homo sapiens) (UniProt Q13285); assay: Selectivity interaction (Reporter gene assay) EUB0000582a NR5A1; set-up: recommended concentration 1 uM
[8] = target: Steroidogenic factor 1 (Homo sapiens) (UniProt Q13285); assay: Selectivity interaction (Reporter gene assay) EUB0000585a NR5A1; set-up: recommended concentration 1 uM
[9] = target: T2, Hepatocyte nuclear factor 4-alpha (Homo sapiens); assay: Selectivity interaction (Reporter gene assay) EUB0000585a HNF4A; set-up: recommended concentration 1 uM
[10] = target: T3, Retinoic acid receptor RXR-alpha (Homo sapiens); assay: Selectivity interaction (Reporter gene assay) EUB0000585a RXRA; set-up: recommended concentration 1 uM; settings: reference bexarotene 1 uM, Selectivity number of off-targets 0.0, Selectivity number of targets 1.0, Source Knowledge inhouse
[11] = target: Nuclear receptor subfamily 2 group E member 1 (Homo sapiens) (UniProt Q9Y466); assay: Selectivity interaction (Reporter gene assay) EUB0000585a NR2E1; set-up: recommended concentration 1 uM
[12] = target: T4, Alpha trans-inducing protein (Human alphaherpesvirus 1); assay: Selectivity interaction (Reporter gene assay) EUB0000585a UL48; set-up: recommended concentration 1 uM
[13] = target: Nuclear receptor subfamily 4immunitygroup A member 1 (Homo sapiens) (UniProt P22736); assay: Selectivity interaction (Reporter gene assay) EUB0000585a NR4A1; set-up: recommended concentration 1 uM
[14] = target: T1, Nuclear receptor subfamily 2 group C member 1 (Homo sapiens); assay: Selectivity interaction (Reporter gene assay) EUB0000585a NR2C1; set-up: recommended concentration 1 uM
[15] = target: Steroidogenic factor 1 (Homo sapiens) (UniProt Q13285); assay: Selectivity interaction (Reporter gene assay) EUB0000571a NR5A1; set-up: recommended concentration 1 uM
[16] = target: T2, Hepatocyte nuclear factor 4-alpha (Homo sapiens); assay: Selectivity interaction (Reporter gene assay) EUB0000571a HNF4A; set-up: recommended concentration 1 uM
[17] = target: T3, Retinoic acid receptor RXR-alpha (Homo sapiens); assay: Selectivity interaction (Reporter gene assay) EUB0000571a RXRA; set-up: recommended concentration 1 uM; settings: reference bexarotene 1 uM, Selectivity number of off-targets 0.0, Selectivity number of targets 1.0, Source Knowledge inhouse
[18] = target: Nuclear receptor subfamily 4immunitygroup A member 1 (Homo sapiens) (UniProt P22736); assay: Selectivity interaction (Reporter gene assay) EUB0000571a NR4A1; set-up: recommended concentration 1 uM
[19] = target: Nuclear receptor subfamily 2 group E member 1 (Homo sapiens) (UniProt Q9Y466); assay: Selectivity interaction (Reporter gene assay) EUB0000571a NR2E1; set-up: recommended concentration 1 uM
[20] = target: T1, Nuclear receptor subfamily 2 group C member 1 (Homo sapiens); assay: Selectivity interaction (Reporter gene assay) EUB0000571a NR2C1; set-up: recommended concentration 1 uM
[21] = target: T4, Alpha trans-inducing protein (Human alphaherpesvirus 1); assay: Selectivity interaction (Reporter gene assay) EUB0000571a UL48; set-up: recommended concentration 1 uM
[22] = target: Nuclear receptor subfamily 4immunitygroup A member 1 (Homo sapiens) (UniProt P22736); assay: Selectivity interaction (Reporter gene assay) EUB0000572aCl NR4A1; set-up: recommended concentration 3 uM
[23] = target: T1, Nuclear receptor subfamily 2 group C member 1 (Homo sapiens); assay: Selectivity interaction (Reporter gene assay) EUB0000572aCl NR2C1; set-up: recommended concentration 3 uM; settings: screened at recom. conc., Selectivity number of off-targets 2.0, Selectivity number of targets 5.0, Source Knowledge inhouse
[24] = target: Steroidogenic factor 1 (Homo sapiens) (UniProt Q13285); assay: Selectivity interaction (Reporter gene assay) EUB0000572aCl NR5A1; set-up: recommended concentration 3 uM
[25] = target: T2, Hepatocyte nuclear factor 4-alpha (Homo sapiens); assay: Selectivity interaction (Reporter gene assay) EUB0000572aCl HNF4A; set-up: recommended concentration 3 uM
[26] = target: T3, Retinoic acid receptor RXR-alpha (Homo sapiens); assay: Selectivity interaction (Reporter gene assay) EUB0000572aCl RXRA; set-up: recommended concentration 3 uM; settings: reference bexarotene 1 uM, Selectivity number of off-targets 0.0, Selectivity number of targets 1.0, Source Knowledge inhouse
[27] = target: Nuclear receptor subfamily 2 group E member 1 (Homo sapiens) (UniProt Q9Y466); assay: Selectivity interaction (Reporter gene assay) EUB0000572aCl NR2E1; set-up: recommended concentration 3 uM; settings: screened at recom. conc., Selectivity number of off-targets 2.0, Selectivity number of targets 5.0, Source Knowledge inhouse
[28] = target: T4, Alpha trans-inducing protein (Human alphaherpesvirus 1); assay: Selectivity interaction (Reporter gene assay) EUB0000572aCl UL48; set-up: recommended concentration 3 uM

Nuclear receptor subfamily 2 group E member 1 (Homo sapiens), sequence (Q9Y466 whole entry): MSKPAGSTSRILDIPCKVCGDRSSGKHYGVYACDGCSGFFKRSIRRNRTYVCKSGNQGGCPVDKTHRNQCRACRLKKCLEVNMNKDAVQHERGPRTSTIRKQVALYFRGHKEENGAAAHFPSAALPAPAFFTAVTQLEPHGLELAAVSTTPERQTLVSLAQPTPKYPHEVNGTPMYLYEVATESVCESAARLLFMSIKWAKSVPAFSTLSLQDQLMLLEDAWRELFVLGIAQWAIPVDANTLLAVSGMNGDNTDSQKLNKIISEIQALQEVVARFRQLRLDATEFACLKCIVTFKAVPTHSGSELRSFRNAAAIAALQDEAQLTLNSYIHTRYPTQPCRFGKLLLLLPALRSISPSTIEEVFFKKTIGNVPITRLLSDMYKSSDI
T4 sequence (A0A5J6DW59 as listed by the source): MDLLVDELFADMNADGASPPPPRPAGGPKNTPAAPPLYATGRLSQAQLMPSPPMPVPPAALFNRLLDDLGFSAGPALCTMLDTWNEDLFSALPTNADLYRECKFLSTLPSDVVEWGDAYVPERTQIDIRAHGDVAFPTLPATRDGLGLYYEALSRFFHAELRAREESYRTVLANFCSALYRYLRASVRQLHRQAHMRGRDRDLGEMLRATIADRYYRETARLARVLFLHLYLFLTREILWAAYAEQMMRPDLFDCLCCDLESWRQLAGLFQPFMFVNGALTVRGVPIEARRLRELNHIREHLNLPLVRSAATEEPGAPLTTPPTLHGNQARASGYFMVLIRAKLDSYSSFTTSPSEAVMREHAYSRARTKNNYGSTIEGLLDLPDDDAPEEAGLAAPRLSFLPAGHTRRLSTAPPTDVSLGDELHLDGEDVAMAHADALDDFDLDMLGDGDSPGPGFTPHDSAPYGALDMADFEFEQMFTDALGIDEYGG
Steroidogenic factor 1 (Homo sapiens), sequence (Q13285 whole entry): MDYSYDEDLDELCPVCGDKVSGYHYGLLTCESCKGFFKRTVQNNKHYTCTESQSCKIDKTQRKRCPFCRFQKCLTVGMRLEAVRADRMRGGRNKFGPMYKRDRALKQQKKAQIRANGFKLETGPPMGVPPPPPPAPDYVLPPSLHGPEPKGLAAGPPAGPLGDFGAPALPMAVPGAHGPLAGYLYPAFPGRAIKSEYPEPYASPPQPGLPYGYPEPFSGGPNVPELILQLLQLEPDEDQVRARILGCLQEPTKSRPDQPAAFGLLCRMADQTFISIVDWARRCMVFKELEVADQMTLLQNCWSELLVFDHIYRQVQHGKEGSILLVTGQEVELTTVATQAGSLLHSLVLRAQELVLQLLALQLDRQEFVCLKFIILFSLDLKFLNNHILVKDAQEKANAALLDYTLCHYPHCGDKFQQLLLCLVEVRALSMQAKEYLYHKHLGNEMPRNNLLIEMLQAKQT
Nuclear receptor subfamily 4immunitygroup A member 1 (Homo sapiens), sequence (P22736 whole entry): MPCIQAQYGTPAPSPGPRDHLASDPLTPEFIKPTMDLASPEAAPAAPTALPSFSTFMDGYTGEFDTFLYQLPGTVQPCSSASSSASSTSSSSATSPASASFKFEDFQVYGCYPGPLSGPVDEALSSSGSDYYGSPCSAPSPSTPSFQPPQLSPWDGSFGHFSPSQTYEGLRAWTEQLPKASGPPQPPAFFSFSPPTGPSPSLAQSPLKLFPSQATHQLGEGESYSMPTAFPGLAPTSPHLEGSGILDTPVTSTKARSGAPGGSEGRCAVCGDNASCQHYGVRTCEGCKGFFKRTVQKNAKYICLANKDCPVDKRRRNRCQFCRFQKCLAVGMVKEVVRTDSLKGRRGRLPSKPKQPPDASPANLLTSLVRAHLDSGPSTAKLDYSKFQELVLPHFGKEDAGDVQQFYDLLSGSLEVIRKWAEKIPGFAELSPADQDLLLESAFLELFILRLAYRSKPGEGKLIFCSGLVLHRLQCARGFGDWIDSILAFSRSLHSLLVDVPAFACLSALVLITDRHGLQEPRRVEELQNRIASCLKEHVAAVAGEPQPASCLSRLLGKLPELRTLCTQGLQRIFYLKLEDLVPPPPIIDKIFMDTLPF

A Fold activation [1] of 1.62, a Fold activation [2] of 0.996 and a Fold activation [3] of 1.08 were found for `C=C1/C(=C\C=C2/CCC[C@]3(C)[C@@H]([C@H](C)/C=C/C=C/C(O)(CC)CC)CC[C@@H]23)C[C@@H](O)C[C@@H]1O` in this work. It also gave a Relative activation [4] of 0.643%, a P-value [5] of 0.000219 and a Fold activation [6] of 1.19. The Fold activation [7] was 1.27.
A Remaining activity [8] of 0.672, a Remaining activity [9] of 0.623 and a Relative activation [10] of 0.666% were found for `Cc1cc(OCC(=O)O)cc(C)c1Cc1ccc(O)c(C(C)C)c1` in this work. For the same molecule, the Remaining activity [11] was 0.57, the P-value [12] was 0.00063 and the Remaining activity [13] was 0.496. The Remaining activity [14] was 0.638.
A Fold activation [15] of 1.22, a Fold activation [16] of 1.06 and a Relative activation [17] of 0.67% were found for `COC(=O)C(Cc1ccc(OCCn2c(=O)sc3cc(C(=O)c4ccccc4)ccc32)cc1)C(=O)OC` in this work. The Remaining activity [18] was 0.966, the Remaining activity [19] was 0.849 and the Fold activation [20] was 1.38. The P-value [21] was 0.0005.
A Fold activation [22] of 1.4, a Fold activation [23] of 1.98 and a Fold activation [24] of 1.13 were found for `O=C(O)Cc1cccc(OCCCN(Cc2cccc(C(F)(F)F)c2Cl)CC(c2ccccc2)c2ccccc2)c1` in this work. The Fold activation [25] was 1.18, the Relative activation [26] was 0.674% and the Fold activation [27] was 1.82. The P-value [28] was 2.13e-05.
